Tests used:
[1] = test system: ERK MAPK; test: ERK MAPK phosphorylation during oxygen-glucose deprivation (OGD) in rat cortical neuron cultures; type: cell-based; conditions: rat cortical neurons
Protocol: Equal protein from total cell lysates obtained from rat and mice neuronal cultures were resolved in 7.5% SDS-PAGE, and subjected to immunoblotting procedure as described earlier (Podder and Paul, 2009, J Neurochem 110:1095-1106). Blots were analyzed with antibodies as described in each experiment. All primary antibodies (anti-pERK, anti-ERK) and secondary-horse radish peroxidase conjugated antibody concentrations were used according to recommendations provided by the manufacturer. Signals from immune complexes in the blots were developed using West Pico supersignal chemiluminescence reagents and then captured on X-ray films. Densitometric analysis of the images was performed using the Image J software.
At specified time periods (one hour, two hours, and three hours) during OGD alone or OGD in the presence of L-Hcy (50 μM), cells were removed from the chamber and lysed for immunoblot analysis. Some cultures were treated with L-Hcy (three hours) during the OGD insult in the presence or absence of NVP-AAM077 (30 nM; 3 h). […] Cells were then subjected to staining with Hoechst 33342 dye for 15 minutes, washed extensively with PBS, and analyzed using fluorescent microscopy to assess nuclear damage. To quantitatively assess the percentage of pyknotic nuclei, a total of 1000 cells were counted for each set of experiments (Poddar et al., 2010, J Neurochem 115, 1350-1362).

[2] = test system: control and hyperhomocysteinemic rats subjected to MCAO; test: MCAO (60 min) and reperfusion; infarct size and structural integrity by MRI (T2, ADC, FA maps); type: in vivo, male Wistar rats; conditions: for total infarct volume (T2 maps): 24 hours after MCAO
Protocol: Middle cerebral artery occlusion (MCAO) was performed on both male rats and mice. For rat studies, control and hyperhomocysteinemic male Wistar rats (8-9 weeks, 290-295 g) were subjected to MCAO under anesthesia (2% isoflurane in medical grade oxygen), using the intraluminal method as previously described (Candelario-Jalil, E., et al., 2004, Brain Res 1007:98-108; Deb et al., 2013, J Neurosci 33:17814-17826). Briefly, the right common carotid artery (CCA) was exposed through an incision made in the ventral midline neck region. To prevent improper insertion of the occluding filament, both the external carotid artery and pterygopalatine branch of the internal carotid artery were clipped. A silicon-rubber-coated monofilament (403756, Doccol Corp., Sharon, Mass.) was inserted into the internal carotid artery through an incision made in the CCA, 2 mm proximal from the bifurcation of the CCA, and advanced 18-19 mm from the bifurcation, to occlude the origin of the anterior cerebral, middle cerebral, and posterior communicating arteries. The incision was closed and the rats were allowed to recover from anesthesia. A quick assessment of neurological deficit was done immediately prior to reperfusion and only those animals that had more than 50% of contralateral forelimb flexion and walked in circles to the contralateral side were considered for the study, as previously described (Longa et al., 1989, Stroke 20:84-91). Following 60 minutes of occlusion, the rats were anesthetized and the filament was gently retracted to allow reperfusion. The incision was closed and the rats were allowed to recover from anesthesia. A subset of control and hyperhomocysteinemic rats received a single intravenous injection of GluN2A-NMDAR selective inhibitor NVP-AAM077 (1.2 mg/kg body weight) through the femoral vein, and another subset received a single intraperitoneal injection of GluN2B-NMDAR inhibitor Ro 256981 (6 mg/kg body weight), as previously described (Chaperon et al., 2003, Behav Pharmacol 14:477-87; Fox et al., 2006, Hippocampus 16:907-015). Both NVP-AAM077 and Ro 256981 were administered at the onset of ischemic insult. The rats were then subjected to MRI on days 1, 3, and 14 post-MCAO and a series of behavioral tests was performed between days 7-9 post-MCAO.
Multimodal MRI of rat brain that includes relaxation time imaging and diffusion imaging was performed at 1, 3 and 14 days after MCAO and reperfusion. The rats were placed in a dedicated holder and positioned in the isocenter of a 4.7-Tesla MRI scanner (Bruker Biospin) that is equipped with a 40-cm bore and a gradient of 660 mT/m at rise time within […]. To obtain good signal-to-noise ratio, a small-bore linear RF coil (inner diameter=72 mm) was used for signal excitation, and a single tuned surface coil (RAPID Biomedical, Rimpar, Germany) was used for signal detection (Sood et al., 2009, J Cereb Blood Flow Metab 29:308-316; Taheri, S. and Sood, R., 2007, Magn Reson Imaging 25:613-625; Yang et al., 2013 J Cereb Blood Flow Metab 33:1104-1114). For mice, the MRI was performed only at day 1. The mice were placed in its dedicated holder of inner diameter 72 mm in the 4.7-Tesla MRI scanner with a 40-cm bore size and a gradient rise time/maximum speed of 9000 T/m/s. During MRI, the rats and mice were kept anesthetized with 2% isoflurane in medical grade oxygen. Respiration and heart rate were monitored continuously and body temperature was maintained at 37.0±0.5° C.
For rats, T2-weighted images were acquired with a rapid acquisition with relaxation enhancement (RARE) sequence of Repetition Time (TR)/Echo Time (TE)=5,000 ms/56 ms, Field of View (FOV)=4 cm×4 cm, slice thickness=1 mm, inter-slice distance=1.1 mm, number of slices=12, matrix=256×256 and number of average=3. For mice, T2 weighted images were acquired with a RARE sequence of Repetition Time/Echo Time=5,000 ms/56 ms, Field of View=4 cm×4 cm, slice thickness=1 mm, number of slices=12, matrix=256×256 and number of average=3. […]

[3] = test system: neuron cultures from WT and GluN2A-KO mice; test: Neuronal cell death by Hoechst DNA staining, WT and GluN2A-KO mouse neuron cultures; type: cell-based; conditions: for neuronal death: homocysteine 50 μM, 18 hours; for cell death: L-homocysteine 50 μM, 24 hours
Protocol: Neurons were subjected to staining with Hoechst 33342 dye for 15 minutes, washed extensively with PBS, and analyzed using fluorescent microscopy to assess nuclear damage. Imaging was performed with a Zeiss Axiovert 200M fluorescence microscope with attached AxioCam CCD camera using 20× objective lens (Carl Zeiss, Thomwood, N.Y.). To quantitatively assess the percentage of pyknotic nuclei a total of 1000 cells were counted for each set of experiments. Mean±SEM (n=3) were used for statistical comparison using ANOVA (Bonferroni's multiple comparison test). Differences were considered significant when p<0.05.
[…] Glutamate treated cells were then maintained in their original medium for another 17 hours. For some experiments, neurons were treated with L-homocysteine or glutamate in the presence of NVP-AAM077 or PD98059. The neurons were then fixed and stained with Hoechst 33342 dye as previously described (Poddar and Paul, 2009, J Neurochem 110:1095-1106). Percentage of pyknotic nuclei was quantitatively assessed by fluorescent microscopy to determine the extent of neuronal death.

[4] = control rats, single injection at onset of ischemic insult (NVP-AAM077 1.2 mg/kg; Ro 256981 6 mg/kg), untreated control 18.65±2.89%
[5] = hyperhomocysteinemic (HHcy) rats, single injection at onset of insult (NVP-AAM077 1.2 mg/kg; Ro 256981 6 mg/kg), untreated HHcy 37.41±2.33%

| SMILES | effect on ERK MAPK activation by OGD plus L-homocysteine ([1]; OGD and L-Hcy 50 μM three hours, NVP-AAM077 30 nM) | lesion volume (T2 maps) ([2]; HHcy rats, day 3 after MCAO, NVP-AAM077 1.2 mg/kg, untreated HHcy 38.63±2.75%) | FA value in the infarcted area ([2]; HHcy rats, day 14 after MCAO, NVP-AAM077 1.2 mg/kg, untreated HHcy 0.25±0.01) | lesion volume (T2 maps) ([2]; HHcy rats, day 14 after MCAO, NVP-AAM077 1.2 mg/kg, untreated HHcy 27.16±2.18%) | total infarct volume (T2 maps) [2, 4] | total infarct volume (T2 maps) [2, 5] | ERK MAPK phosphorylation during OGD ([1]; OGD in the presence of L-Hcy 50 μM, time course up to three hours) | neuronal death ([3]; cultures from GluN2A KO mice) | neuronal death ([3]; cultures from WT mice) | cell death ([3]; neurons from GluN2A-NMDAR knockout mice) | cell death ([3]; neurons from WT mice) |
| --- | --- | --- | --- | --- | --- | --- | --- | --- | --- | --- | --- |
| C[C@H](NC(c1cccc2[nH]c(=O)c(=O)[nH]c12)P(=O)(O)O)c1ccc(Br)cc1 (stereo partly drawn) [NVP-AAM077, ({[(1S)-1-(4-bromophenyl)ethyl]amino}-(2,3-dioxo-1,4-dihydroquinoxalin-5-yl)methyl)phosphonic acid] | inhibits the activation of ERK MAPK | 19.61±4.48% | 0.32±0.01 | 10.76±2.40% | 16.07±2.8% | 17.98±3.24% |  |  |  |  |  |
| C[C@@H](CN1CCC(Cc2ccccc2)CC1)[C@@H](O)c1ccc(O)cc1 [Ro 25-6981] |  |  |  |  | 7.46±1.24% | 32.48±4.32% |  |  |  |  |  |
| N[C@@H](CCS)C(=O)O [L-homocysteine] |  |  |  |  |  |  | causes sustained ERK MAPK phosphorylation | fails to induce neurotoxicity | significantly increases neuronal death | fails to alter cell death | significant increase in cell death |

From patent publication US11541065B2, “Compositions and methods for treating brain injury” (UNM RAINFOREST INNOVATIONS, priority 2018, dated 2023)
